Results on 29 compounds are retold here after patent publication US20120115827A1, “3-AMINOBENZAMIDE COMPOUNDS AND VANILLOID RECEPTOR SUBTYPE 1 (VR1) INHIBITORS” (Japan Tobacco Inc., priority 2004, published 2012).

Counter-ions that a name gives are not always drawn.

For the assay, the target named is T1, human VR1 (Homo sapiens, UniProt Q8NER1).
T1 construct: expressed in transfected cells
T1 sequence (Q8NER1 whole entry): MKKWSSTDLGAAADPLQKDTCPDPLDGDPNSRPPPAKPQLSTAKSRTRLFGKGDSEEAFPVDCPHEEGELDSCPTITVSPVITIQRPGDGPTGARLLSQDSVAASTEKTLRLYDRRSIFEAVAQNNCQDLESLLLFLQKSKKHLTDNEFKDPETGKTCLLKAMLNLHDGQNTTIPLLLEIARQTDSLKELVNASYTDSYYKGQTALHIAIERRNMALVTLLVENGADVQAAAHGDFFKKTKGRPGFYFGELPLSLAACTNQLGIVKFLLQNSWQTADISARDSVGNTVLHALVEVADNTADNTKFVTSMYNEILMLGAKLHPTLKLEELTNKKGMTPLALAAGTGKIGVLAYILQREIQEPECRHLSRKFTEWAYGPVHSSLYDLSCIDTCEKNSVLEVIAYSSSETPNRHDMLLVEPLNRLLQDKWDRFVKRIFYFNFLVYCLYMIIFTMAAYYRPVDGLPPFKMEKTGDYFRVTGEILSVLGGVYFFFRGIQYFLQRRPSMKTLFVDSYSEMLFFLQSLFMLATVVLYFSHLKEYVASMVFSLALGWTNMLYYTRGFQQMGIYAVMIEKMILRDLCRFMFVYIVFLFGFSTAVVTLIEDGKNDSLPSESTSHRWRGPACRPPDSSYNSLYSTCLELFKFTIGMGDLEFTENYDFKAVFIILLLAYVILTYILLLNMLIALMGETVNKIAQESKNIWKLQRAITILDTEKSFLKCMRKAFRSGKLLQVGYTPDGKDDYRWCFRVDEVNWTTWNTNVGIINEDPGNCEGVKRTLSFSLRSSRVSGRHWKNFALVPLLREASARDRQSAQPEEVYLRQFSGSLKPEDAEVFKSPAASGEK
Kind of assay: Inhibition of Ca2+ entry in cells caused by proton (VR1 agonist). In kind it is cell-based. The note with it: Rat glioma (C6BU1) cells stably expressing human VR1; proton stimulation to pH 5.5; Fura 2-AM fluorescence; read-out: In vitro IC50. As for the experimental part:
The assay for evaluation of VR1 inhibition by the inventive compounds will be described below. The assay was intended to evaluate in vitro inhibition of Ca^2+ entry in cells caused by proton, one of the VR1 agonists.
Rat glioma (C6BU1) cells stably expressing human VR1 were suspended in 20 mM MES buffer (at pH 6.8, contg. 20 mM 2-morpholinoethanesulfonate (referred to as MES hereinafter), 115 mM NaCl, 5 mM KCl, 1 mM MgCl2 and 14 mM D-glucose) to make a cell density of 1×10^6 cells/mL. A fluorescent dye, Fura 2-AM solution (Dojindo Corporate, Cat. No. 343-05401) was added to the suspension to make a 5 μM concentration thereof. Further, Pluronic F-127 (Wako Pure Chemical Industries, Ltd., Cat. No. P6866) was added to make a 0.1% content thereof. Then, the suspension was incubated at 37° C. for 30 min. The cells were harvested and washed three times with 20 mM MES buffer. The cells were suspended again to make a cell density of 5×10^5 cells/mL. A 500-μL portion of the suspension was taken with a cuvette (MC MEDICAL, INC., Cat. No. SSR3121), to which […] MES buffer containing 250 mM CaCl2 was added to incorporate Ca^2+ into the cells. At the same time, 5 μL of a test compound solution (in a range of 100 μM to 10 nM in DMSO) was also added to provide a final concentration thereof in a range of 1 μM to 0.1 nM. Alternatively, 5 μl of DMSO was added as control to provide a final concentration of 1% DMSO. The suspension was set in an intracellular ionometer (CAF-110; JASCO) 10 min after those additions. The cells were stimulated with protons by addition of 60 μL of 20 mM MES buffer at pH 1.1 to the suspension to set its pH at 5.5. The activity of the test compound was determined as a difference between the minimum of fluorescence intensity before agonist stimulation and its maximum after the stimulation. The value of IC50 was derived from percentage of inhibition by the test compound compared with the control.
With `CC(C)COc1ccc(NC(=O)c2ccc(Cl)c(N(CCO)c3ncccc3Cl)c2)cc1` [Example 35, 4-chloro-3-[N-(3-chloropyridin-2-yl)-N-(2-hydroxyethyl)amino]-N-(4-isobutyloxyphenyl)benzamide, hydrochloride salt], the IC50 (in general, the midpoint of a concentration-inhibition curve) is not above 100 nM.
Take `O=C(Nc1ccc(Cl)cc1)c1ccc(Cl)c(N(CCO)c2ncccc2Cl)c1` [Example 36, 4-chloro-N-(4-chlorophenyl)-3-[N-(3-chloropyridin-2-yl)-N-(2-hydroxyethyl)amino]-benzamide]: the IC50 is not above 100 nM.
For the compound `CC(C)c1ccc(NC(=O)c2ccc(Cl)c(N(CCO)c3ncccc3Cl)c2)cc1` [Example 37, 4-chloro-3-[N-(3-chloropyridin-2-yl)-N-(2-hydroxyethyl)amino]-N-(4-isopropylphenyl)-benzamide], the IC50 is not above 100 nM.
For the compound `O=C(Nc1ccc(Cl)c(C(F)(F)F)c1)c1ccc(Cl)c(N(CCO)c2ncccc2Cl)c1` [Example 39, 4-chloro-3-[N-(3-chloropyridin-2-yl)-N-(2-hydroxyethyl)amino]-N-(4-chloro-3-trifluoromethylphenyl)benzamide], the IC50 was not above 100 nM.
The result for `O=C(Nc1ccc(C(F)(F)F)nc1)c1ccc(Cl)c(N(CCO)c2ncccc2Cl)c1` [Example 40, 4-chloro-3-[N-(3-chloropyridin-2-yl)-N-(2-hydroxyethyl)amino]-N-(2-trifluoromethylpyridine-5-yl)benzamide] reads not above 100 nM; that for `CC(C)Oc1ccc(NC(=O)c2ccc(Cl)c(N(CCO)c3ncccc3Cl)c2)cc1` [Example 41, 4-chloro-3-[N-(3-chloropyridin-2-yl)-N-(2-hydroxyethyl)amino]-N-(4-isopropyloxyphenyl)-benzamide], not above 100 nM; that for `O=C(Nc1ccc(N2CCCCC2)c(F)c1)c1ccc(Cl)c(N(CCO)c2ncccc2Cl)c1` [Example 43, 4-chloro-3-[N-(3-chloropyridin-2-yl)-N-(2-hydroxyethyl)amino]-N-(3-fluoro-4-piperidinylphenyl)-benzamide], not above 100 nM.
On to `CC(C)(C)c1ccc(NC(=O)c2ccc(Cl)c(N(CCCO)c3ncccc3Cl)c2)cc1` [Example 45, 4-chloro-3-[N-(3-chloropyridin-2-yl)-N-(3-hydroxypropyl)amino]-N-(4-tert-butylphenyl)-benzamide], for which the IC50 was not above 100 nM.
The result for `CC(C)(C)c1ccc(NC(=O)c2ccc(Cl)c(N(CC(=O)O)c3ncccc3Cl)c2)cc1` [Example 46, N-(3-chloropyridin-2-yl)-N-{2-chloro-5-[N-(4-tert-butylphenyl)carbamoyl]phenyl}-aminoacetic acid] reads not above 100 nM.
Turning to `CC(C)(C)c1ccc(NC(=O)c2ccc(Cl)c(N(CC(N)=O)c3ncccc3Cl)c2)cc1` [Example 47, 4-chloro-3-[N-(3-chloropyridin-2-yl)-N-(carbamoylmethyl)amino]-N-(4-tert-butylphenyl)-benzamide], the IC50 was not above 100 nM.
The result for `CNC(=O)CN(c1cc(C(=O)Nc2ccc(C(C)(C)C)cc2)ccc1Cl)c1ncccc1Cl` [Example 48, 4-chloro-3-[N-(3-chloropyridin-2-yl)-N-(N-methylcarbamoylmethyl)amino]-N-(4-tert-butylphenyl)-benzamide] reads not above 100 nM; that for `CN(C)C(=O)CN(c1cc(C(=O)Nc2ccc(C(C)(C)C)cc2)ccc1Cl)c1ncccc1Cl` [Example 49, 4-chloro-3-[N-(3-chloropyridin-2-yl)-N—(N,N-dimethylcarbamoylmethyl)amino]-N-(4-tert-butylphenyl)-benzamide], 100 to 1000 nM.
On to `COc1ccc(C(=O)Nc2ccc(OCC(C)C)cc2)cc1N(CCO)c1ncccc1Cl` [Example 50, 3-[N-(3-chloropyridin-2-yl)-N-(2-hydroxyethyl)amino]-N-(4-isobutyloxyphenyl)-4-methoxy-benzamide], for which the IC50 is not above 100 nM.
Take `COc1ccc(C(=O)Nc2ccc(OCC(C)C)cc2)cc1N(CCO)c1ccc(C)cn1` [Example 51, N-(4-isobutyloxyphenyl)-4-methoxy-3-[N-(5-methylpyridin-2-yl)-N-(2-hydroxyethyl)amino]-benzamide]: the IC50 is not above 100 nM.
As for `CC(C)COc1ccc(NC(=O)c2cccc(N(CCO)c3ncccc3Cl)c2)cc1` [Example 52, 3-[N-(3-chloropyridin-2-yl)-N-(2-hydroxyethyl)amino]-N-(4-isobutyloxyphenyl)-benzamide], the IC50 is not above 100 nM.
`CC(C)(C)c1ccc(NC(=O)c2cccc(N(CCO)c3ncccc3Cl)c2)cc1` [Example 53, N-(4-tert-butylphenyl)-3-[N-(3-chloropyridin-2-yl)-N-(2-hydroxyethyl)amino]-benzamide]: the IC50 is not above 100 nM.
Consider `O=C(Nc1ccc(C(F)(F)F)cc1)c1cccc(N(CCO)c2ncccc2Cl)c1` [Example 54, 3-[N-(3-chloropyridin-2-yl)-N-(2-hydroxyethyl)amino]-N-(4-trifluoromethylphenyl)-benzamide], for which the 50% inhibitory concentration (IC50) was not above 100 nM.
Regarding `CNC(=O)c1cc(NC(=O)c2ccc(Cl)c(N(CCO)c3ncccc3Cl)c2)ccc1OCC(C)C` [Example 55, 4-chloro-3-[N-(3-chloropyridin-2-yl)-N-(2-hydroxyethyl)amino]-N-(4-isobutyloxy-3-methylcarbamoylphenyl)-benzamide], the IC50 was not above 100 nM.
Consider `CC(C)COc1ccc(NC(=O)c2ccc(Cl)c(N(CCO)c3ncccc3Cl)c2)cc1C(=O)N(C)C` [Example 56, 4-chloro-3-[N-(3-chloropyridin-2-yl)-N-(2-hydroxyethyl)amino]-N-(3-dimethylcarbamoyl-4-isobutyloxyphenyl)-benzamide], for which the IC50 is not above 100 nM.
`CC(C)(C)c1ccc(NC(=O)c2ccc(Cl)c(N(CC(=O)NCCO)c3ncccc3Cl)c2)cc1` [Example 57, N-(4-tert-butylphenyl)-4-chloro-3-{N-(3-chloropyridin-2-yl)-N—[N-(2-hydroxyethyl)carbamoylmethyl]amino}-benzamide]: the IC50 is not above 100 nM.
Take `NC(=O)CN(c1cc(C(=O)Nc2ccc(C(F)(F)F)cc2)ccc1Cl)c1ncccc1Cl` [Example 59, 4-chloro-3-[N-(3-chloropyridin-2-yl)-N-(carbamoylmethyl)amino]-N-(4-trifluoromethylphenyl)-benzamide]: the IC50 is not above 100 nM.
The result for `NC(=O)CN(c1cc(C(=O)Nc2ccc(OC(F)(F)F)cc2)ccc1Cl)c1ncccc1Cl` [Example 60, 4-chloro-3-[N-(3-chloropyridin-2-yl)-N-(carbamoylmethyl)amino]-N-(4-trifluoromethoxyphenyl)-benzamide] reads not above 100 nM.
The figure for `CC(C)COc1ccc(NC(=O)c2ccc(Cl)c(N(CC(N)=O)c3ncccc3Cl)c2)cc1` [Example 61, 4-chloro-3-[N-(3-chloropyridin-2-yl)-N-(carbamoylmethyl)amino]-N-(4-isobutyloxyphenyl)-benzamide] is not above 100 nM; for `NC(=O)CN(c1cc(C(=O)Nc2ccc(N3CCCCC3)c(F)c2)ccc1Cl)c1ncccc1Cl` [Example 62, 4-chloro-3-[N-(3-chloropyridin-2-yl)-N-(carbamoylmethyl)amino]-N-(3-fluoro-4-piperidinophenyl)-benzamide] it is not above 100 nM; for `Cc1ccc(C(=O)Nc2ccc(C(F)(F)F)cc2)cc1N(CC(N)=O)c1ncccc1Cl` [Example 63, 3-[N-(3-chloropyridin-2-yl)-N-(carbamoylmethyl)amino]-4-methyl-N-(4-trifluoromethylphenyl)-benzamide] it is not above 100 nM.
As to `Cc1ccc(C(=O)Nc2ccc(OC(F)(F)F)cc2)cc1N(CC(N)=O)c1ncccc1Cl` [Example 64, 3-[N-(3-chloropyridin-2-yl)-N-(carbamoylmethyl)amino]-4-methyl-N-(4-trifluoromethoxyphenyl)-benzamide], the half-inhibitory concentration (IC50) is not above 100 nM.
The result for `Cc1ccc(C(=O)Nc2ccc(OCC(C)C)cc2)cc1N(CC(N)=O)c1ncccc1Cl` [Example 65] reads not above 100 nM; that for `CNC(=O)CN(c1cc(C(=O)Nc2ccc(C(F)(F)F)cc2)ccc1Cl)c1ncccc1Cl` [Example 66, 4-chloro-3-[N-(3-chloropyridin-2-yl)-N-(N-methylcarbamoylmethyl)amino]-N-(4-trifluoromethylphenyl)-benzamide], not above 100 nM; that for `NC(=O)CN(c1cc(C(=O)Nc2ccc(OC(F)(F)F)cc2)ccc1Cl)c1ncc(C(F)(F)F)cc1Cl` [Example 67, 4-chloro-3-[N-(3-chloro-5-trifluoromethylpyridin-2-yl)-N-(carbamoylmethyl)amino]-N-(4-trifluoromethoxyphenyl)-benzamide], not above 100 nM.
